Non-standard residues stand in square brackets, D forms with d. Residues, ends and D or L forms follow the SMILES beside them.
Columns and labels:
[1] = target: T1, Tau^FL-A152T (Homo sapiens, UniProt P10636, A469T); assay: Fibrillization of Tau^FL-A152T monitored by ThS assay; type: biochemical; conditions: Tau:peptide = 1:1; 1:5; 1:10
T1 construct: Tau^FL-A152T Full-length Tau mutant A152T
Method: For Tau fibrillization inhibition assays, 10 μM Tau mutant protein (Tau^RDΔK, Tau^FLΔK, Tau^FL-A152T, Tau^FL-P301L) was incubated in BES buffer (N,N-bis(2-hydroxyethyl)-2-aminoethanesulfonic acid, pH 7) in the presence of 2.5 μM heparin at 37 °C for 24 h with and without novel D-peptides (ISAD1 and ISAD1rev) at different concentrations (1 nM to 200 μM). Final concentration of 20 μM ThS was used for monitoring fibrillization. The assay was performed with 40-μl sample volume per well in a 384-well microtiter plate (Thermo LabSystems, Dreieich, Germany). The fibrillization of Tau was monitored by ThS and the relative fluorescence intensity of ThS was read out at 440 excitation/521 emission nm in a Tecan micro titer plate reader (Tecan, Männedorf, Switzerland).

[2] = target: T2, Tau^RDΔK (Homo sapiens, UniProt P10636, DEL597-597); assay: Pelleting assay and western blot, Tau^RDΔK; type: biochemical; conditions: 10 μM Tau, 100 μM peptide, 24 h, 61,000 rpm 60 min, K9JA western blot
T2 construct: Tau^RDΔK Pro-aggregant repeat domain Tau mutant ΔK280; made in house
T2 sequence (P10636 with tags, fused parts or gaps DEL597-597): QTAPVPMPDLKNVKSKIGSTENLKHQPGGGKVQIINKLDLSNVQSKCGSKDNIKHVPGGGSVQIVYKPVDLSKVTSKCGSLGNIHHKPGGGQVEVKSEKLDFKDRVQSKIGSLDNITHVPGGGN
Method: (§1) After the ThS assay (end time point, 24 h), 70 μl of each sample (pooled together from 2 wells) was centrifuged in a Beckmann coulter (Optima Max Ultra Centrifuge, TLA 100.3 rotor) at 61,000 rpm for 60 min at 4 °C. After centrifugation, the supernatant was separated from the pellet. Then, the pellet was dissolved in BES buffer in an equal volume as the supernatant. For the following western blot, 12-μl samples were mixed with 3-μl SDS-sample buffer (5x), heated for 5 min at 95 °C, and loaded onto a 8–16% SDS tris-glycine-gel (BioRad, Feldkirchen, Germany). The proteins were transferred to a polyvinylidene fluoride (PVDF) membrane. After the transfer, the membrane was blocked in 5% non-fat dry milk. After washing the membrane three times for 10 min with TBST, the primary pan-Tau K9JA antibody (1:5000; Agilent, Waldbronn, Germany) was incubated for 1 h at RT with gentle agitation, followed by again 3-times washing with TBST. For detection on western blot, the secondary antibody (goat anti-rabbit HRP, Agilent, Waldbronn, Germany) was incubated in a 1:2000 dilution for 1 h at RT with shaking. […] The quantification of intensities was performed using ImageJ.

[3] = system: Tau^FLΔK, Tau^FL-A152T, Tau^FL-P301L; assay: Pelleting assay and western blot, full-length Tau mutants; type: biochemical, human; conditions: 10 µM Tau mutant, 100 µM peptide, 24 hours, K9JA western blot
Method: as §1, with “TBST.” for “TBST. For detection on western blot, the secondary antibody (goat anti-rabbit HRP, Agilent, Waldbronn, Germany) was incubated in a 1:2000 dilution for 1 h at RT with shaking.”
S-Figure 4-6: ISAD1 induces the formation of non-fibrillar large aggregates of Tau mutants. […] (C) The intensity of protein amount in supernatant and pellet was quantified by ImageJ for different Tau mutants such as Tau^FLΔK (Sup. Fig. 2C), Tau^FL-^A152T (Sup. Fig. 3C) or Tau^FL^-P^301L (Sup. Fig. 4C).

[4] = system: N2a-Tau^RDΔK cells; assay: ROS measurement (DCF), externally added Tau^RDΔK aggregates; type: cell-based; conditions: 10 μM Tau, 100 μM peptide final, pre-incubated, 30 min, n = 3
Method: Toxic Tau oligomers and fibrils can induce the production of superoxides and peroxy radicals in cells which can be measured with fluorescent dye dichlorodihydrofluorescein (DCF). N2a-Tau^RDΔK cells were plated on D-lysine-coated 96-well plates. At 70 to 80% confluence, the cells were washed once with warm PBS and then incubated with 20 μM of DCF (Abcam, Cambridge, UK) diluted in 1X dilution buffer for 30 min at 37 °C. After 30 min, the cells were washed once with 1X PBS. After washing, the cells were incubated with desired concentrations of different samples (10 μM oligomers/fibrils ± treated with 100 μM D-peptides or controls) for 30 min. The cytotoxic agent TBHP (tert-butylhydroperoxide) was used as the positive control. The fluorescence intensity was measured using a spectrofluorometer (Tecan, Männedorf, Switzerland; excitation at 485 nm and emission at 535 nm).

[5] = system: N2a-Tau^RDΔK cells; assay: MTT, intracellularly expressed Tau^RDΔK (Dox induced); type: cell-based; conditions: 1 μg/ml doxycycline, 72 h, n = 2
Method: After the N2a-Tau^RDΔK cells reached the desired confluence (25,000 cells/well or 80%), intracellular Tau^RDΔK expression was induced by the addition of 1 μg/ml Dox. The cells were plated on poly D-lysine-coated 96-well plates (Greiner Bio-One GmbH, Frickenhausen, Germany) and treated with ISAD1 and ISAD1rev in a concentration range of 25 to 250 μM. TritonX-100 (2%) was used as a positive control. The incubation and Tau^RDΔK expression time was 72 h. Following incubation, cell viability was studied by measuring MTT and LDH release in accordance with the manufacturer’s protocol.

T1 sequence (P10636 1-441 isoform P10636-8 A152T): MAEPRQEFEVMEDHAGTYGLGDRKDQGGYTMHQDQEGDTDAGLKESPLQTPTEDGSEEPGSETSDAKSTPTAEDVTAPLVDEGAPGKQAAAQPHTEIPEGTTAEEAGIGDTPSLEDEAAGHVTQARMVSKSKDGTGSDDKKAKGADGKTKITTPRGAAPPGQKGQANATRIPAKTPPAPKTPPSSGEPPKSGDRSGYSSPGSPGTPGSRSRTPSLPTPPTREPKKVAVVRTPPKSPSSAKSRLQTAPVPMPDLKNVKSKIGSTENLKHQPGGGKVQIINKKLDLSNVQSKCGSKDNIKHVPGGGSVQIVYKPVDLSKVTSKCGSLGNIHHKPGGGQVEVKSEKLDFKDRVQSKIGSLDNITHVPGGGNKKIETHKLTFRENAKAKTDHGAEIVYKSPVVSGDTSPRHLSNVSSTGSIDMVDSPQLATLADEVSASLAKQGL

## CC(C)C[C@@H](NC(=O)[C@@H](CO)NC(=O)[C@@H](CC(C)C)NC(=O)[C@H](NC(=O)[C@@H](CC(=O)O)NC(=O)[C@@H](C)NC(=O)[C@@H](C)NC(=O)[C@H](N)CO)[C@H](C)O)C(=O)N[C@H](CCCCN)C(=O)N[C@H](Cc1ccccc1)C(=O)N[C@@H](C(=O)N[C@H](CO)C(=O)O)C(C)C [ISAD1rev] (H-[dS][dA][dA][dD][dT][dL][dS][dL][dK][dF][dV][dS]-OH; N-terminus and C-terminus assumed)
[1]
  Inhibition of Tau^FL-A152T fibrillization, in words: weak inhibitory effects
[2]
  Distribution of Tau^RDΔK between pellet and supernatant: only apparent in the pellet
[3]
  Distribution of full-length Tau mutants between pellet and supernatant: more fractions in the supernatant
[4]
  Effect on toxicity of Tau aggregates, ROS level: reducing intracellular ROS levels
[5]
  Cell viability at 50 μM peptide: no increase in cell viability

— article PMC8783508, “A novel D-amino acid peptide with therapeutic potential (ISAD1) inhibits aggregation of neurotoxic disease-relevant mutant Tau and prevents Tau toxicity in vitro” (Alzheimer's Research & Therapy, 2022)
